The numbers were not newly measured in patent publication US6987099B2, “Uncomplexed cyclodextrin compositions for odor control” (The Procter & Gamble Company, priority 1997, dated 2006), which cites them from elsewhere.

Structures can show the parent of a compound that is named as a salt.

In the case of `O=[N+]([O-])C1(Br)COCOC1` [Bronidox L, 5-bromo-5-nitro-1,3-dioxane], the solubility in water result was “about 0.46%”.

Consider `[H]/N=C(\N/C(=N/[H])NCCCCCCNC(=N)NC(=N)Nc1ccc(Cl)cc1)Nc1ccc(Cl)cc1` [digluconate salt, 1,1′-hexamethylene bis(5-(p-chlorophenyl)biguanide), reference compound], for which the solubility in water result is on record as “about 70%”.

Turning to `CC(C)(O)C(Cl)(Cl)Cl` [chlorobutanol, 1,1,1-Trichloro-2-methylpropan-2-ol], the solubility in water result was “about 0.8%”.

As for `ClC=CC[N+]12CN3CN(CN(C3)C1)C2.[Cl-]` [Dowicil 200, 1-(3-Chlorallyl)-3,5,7-triaza-1-azoniaadamantane chloride], the “solubility in water” value is on record as “freely soluble in water”.

`OCCOc1ccccc1` [2-phenoxyethanol]: the solubility in water entry is on record as “about 2.67%”.

Take `OCCc1ccccc1` [2-phenylethanol]: the solubility in water result is listed as “about 2%”.

As for `[Na+].[O-][n+]1ccccc1[S-]` [sodium pyrithione], the solubility in water entry is given as “about 50%”.

`CC1(C)C(=O)N(CO)C(=O)N1CO` [DMDM hydantoin, 1,3-bis(hydroxymethyl)-5,5-dimethyl-2,4-imidazolidinedione]: the solubility in water result is reported as “more than 50%”.

For the compound `OCc1ccccc1` [benzyl alcohol], the solubility in water entry was “about 4%”.

On to `[H]/N=C(\N/C(=N/[H])NCCCCCCNC(=N)NC(=N)Nc1ccc(Cl)cc1)Nc1ccc(Cl)cc1` [diacetate salt, 1,1′-hexamethylene bis(5-(p-chlorophenyl)biguanide), reference compound], for which the solubility in water result is given as “about 1.8%”.
